Patent US20230128194A1, “METHODS AND COMPOSITIONS TO ALTER HEPATIC GABA RELEASE TO TREAT OBESITY-RELATED CONDITIONS” (ARIZONA BOARD OF REGENTS ON BEHALF OF THE UNIVERSITY OF …, priority 2017, published 2023)

Biological target: T1, BGT1 (Mus musculus, UniProt P31651)
T1 construct: from tissue; host or cells: mouse liver slices
T1 sequence (P31651 1-614): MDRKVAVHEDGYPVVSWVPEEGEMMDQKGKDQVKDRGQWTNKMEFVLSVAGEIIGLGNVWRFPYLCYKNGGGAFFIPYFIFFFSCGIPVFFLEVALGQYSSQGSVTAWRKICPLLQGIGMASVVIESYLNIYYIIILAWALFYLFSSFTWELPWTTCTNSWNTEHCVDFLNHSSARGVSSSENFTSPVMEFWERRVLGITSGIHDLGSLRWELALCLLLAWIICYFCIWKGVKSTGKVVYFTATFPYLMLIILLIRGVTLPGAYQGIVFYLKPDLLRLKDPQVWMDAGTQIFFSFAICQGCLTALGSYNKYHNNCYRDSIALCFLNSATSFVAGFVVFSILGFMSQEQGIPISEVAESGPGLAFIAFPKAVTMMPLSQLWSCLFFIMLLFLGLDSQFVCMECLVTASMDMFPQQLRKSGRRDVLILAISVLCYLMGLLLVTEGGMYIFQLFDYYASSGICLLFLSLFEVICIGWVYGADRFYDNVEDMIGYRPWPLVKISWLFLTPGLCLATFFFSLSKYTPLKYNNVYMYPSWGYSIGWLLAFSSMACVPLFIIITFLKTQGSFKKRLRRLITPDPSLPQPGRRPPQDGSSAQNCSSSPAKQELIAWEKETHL
Test: liver slice media GABA with BGT1 inhibitor
Assay type: cell-based
Settings: liver slices, 1 mM
Source text: Two liver slices were taken from each mouse.

media GABA concentrations: increases
SMILES: C[N+](C)(C)CC(=O)O [betaine]
